# According to patent US20260137807A1, “COMPOSITIONS AND METHODS FOR DELIVERING A MACROMOLECULE TO A CELL” (AstraZeneca AB, priority 2022, published 2026):
# “Also recorded” adds a separate entry of the source.
# Key:
# HeLa_Luc705 cells = test: Splice switching activity assay, 24 hr SMC treatment, Examples 4B/4D; format: cell-based
# Procedure: (§1) HeLa_Luc705 cells were seeded in 96-well plates at 10,000 cells per well in growth media with 2 μM Luc705-SSO or 1 μM Luc705-SSO. The various SMCs were diluted directly into prepared growth media. After 24 hr to allow adherence and SSO internalization, 10 μl of diluted SMC was added into each well at indicated concentrations. For a positive control, SSOs were complexed with Lipofectamine 2000 for 30 min at RT and cells treated with a final concentration of 200 nM. ON concentrations above 200 nM would require LF2000 to be used in excess of the cells' toxicity threshold. After 24 hr treatment, cells were lysed with 0.1% TritonX-100 (Sigma Aldrich, cat no. X100) in 1× PBS (Gibco, cat no. 10010023).
# (§2) For the detection of luciferase activity, 30 μL of cell lysate was transferred to white-walled plates. The luciferase intensity in each well was immediately measured via luminometer following auto-injection of 25 μL Luciferin substrate as per the Promega Firefly Luciferase Assay System. The timing parameters of photon measurements were optimized for this procedure.
# as §1, with “The” for “HeLa_Luc705 cells were seeded in 96-well plates at 10,000 cells per well in growth media with 2 μM Luc705-SSO or 1 μM Luc705-SSO. The”
# HeLa mCherry-Gal9 cells = test: mCherry-GAL9 recruitment assay; format: cell-based
# Text: (§3) All compounds were subjected to a mCherry-GAL9 recruitment assay. Under normal conditions, mCherry-GAL9 is homogenously dispersed in the cytosol. When an endosomal leakage event is detected, mCherry-GAL9 translocates to the damaged endosome (Du Rietz et al. (2020) Nat. Commun. 11:1809) The resulting localization pattern of discrete puncta can be visualized and quantitated.
# (§4) HeLa and Huh7 cell lines stably expressing mCherry-GAL9 were generated as described by (bioRxiv) (Munson, M. et al. (2021) Communications Biology, 4(211): 1-14) and seeded into 384-well CellCarrier Ultra plates (PerkinElmer: 6007558) at 3000 or 3500 cells/well respectively, 16 h before experimental usage.
# (§5) Dose-response curves of select compounds were generated using an Echo 655T acoustic dispenser (Labcyte) to dispense the indicated compounds into source plates (Greiner: 781280) containing growth media. At experimental start points, media containing appropriate compounds and doses was transferred to plates using a liquid handling robot (Agilent Bravo).
# (§6) At assay endpoints, cells were washed 2× PBS at RT and fixed in 4% PFA (VWR: 9713.1000) for 15 mins/RT. Cells were washed a further 3× PBS before the addition of PBS+1 μg/ml Hoechst 33342 (ThermoFisher Scientific: H21492) for a minimum of 1 h before imaging.
# (§7) Plates were imaged using a spinning-disk confocal microscope (Yokogawa: CV7000) with a 20× objective (NA 0.75). Images were processed utilizing Columbus image-analysis software (PerkinElmer: v2.9.0) to identify and quantify cells and mCherry-GAL9 structures. The resulting data were processed and normalized in Spotfire (Tibco: v10.3) and plotted in Prism (Graphpad: v8.0.1). Image panels were assembled using the FigureJ plugin for FIJI. (Mutterer and Zinck (2013) J. Microsc. 252(1):89-91).
# (§8) Cells were subjected to a 10-point concentration dilution (0-15 μM) for 2 hours and then fixed and imaged (FIG. 3 and FIG. 4). Images were analyzed and curves were generated from both mCherry-GAL9 puncta quantitation and cell survival as determined by nuclear morphology (FIG. 5). The GAL9 recruitment response support the functional splice-switching data with SSOs, confirming the mCherry-GAL9 assay as a powerful tool for screening endosomolytic compounds and supporting the hypothesis that AZ2467 (Compound 6) and AZ4800 (Compound 2) promote SSO activity by inducing endosomal rupture. The GAL9 assay was again conducted, this time in live cells for 4 hours with select compounds for screening. Compounds were screened at 5 μM (FIG. 6-8) or 0.3125-10 μM (FIG. 35-38). FIG. 39 and FIG. 47 provide results for select compounds at various doses 0.3125-10 μM.
# Huh7 mCherry-Gal9 cells = test: mCherry-GAL9 recruitment assay; format: cell-based
# Text: as §3, §4, §5, §6, §7, §8
# mCherry-GAL9 cells = test: mCherry-GAL9 assay in live cells for 4 hours, screening; format: cell-based; conditions: 5 μM (FIG. 6-8)
# Procedure: as §8
# [1] = Nanoparticle tracking analysis (NTA); format: physicochemical; conditions: 1 μm or 5 μm oligonucleotide incubated with 5 μm AZ4800 for 2 hours
# Procedure: Many SSO transfection reagents work through complexation or association with the SSO. A nanoparticle tracking analysis (NTA) was performed to determine whether Compound 2 induced aggregation of oligonucleotides in cell media.
# SSO was incubated in cell growth media with and without Compound 2 at 37° C. for 2 hours, mimicking the treatment plan shown in FIG. 10. Analysis was carried out with a Nanosight NS500 instrument running NTA 2.3 analytical software. A script that records 5×30 second videos in light-scatter mode was run with a camera level of 13. Analysis of the videos was then performed with screen gain set to 10 and a detection threshold at 7.
# N2A_Luc705 cells = test: Splice switching activity assay, 24 hr SMC treatment, Examples 4C/4D; format: cell-based; conditions: 2.5 μM compound, 1 μM SSO, FIG. 27
# Procedure: as §1, with “U2OS_Luc705 and N2A_Luc705” for “HeLa_Luc705”, “with” for “with 2 μM Luc705-SSO or”
# as §2
# as §1, with “The” for “HeLa_Luc705 cells were seeded in 96-well plates at 10,000 cells per well in growth media with 2 μM Luc705-SSO or 1 μM Luc705-SSO. The”
# U2OS_Luc705 cells = test: as above; format: cell-based; conditions: 2.5 μM compound, 1 μM SSO, FIG. 27
# Procedure: as §1, with “U2OS_Luc705 and N2A_Luc705” for “HeLa_Luc705”, “with” for “with 2 μM Luc705-SSO or”
# as §2
# as §1, with “The” for “HeLa_Luc705 cells were seeded in 96-well plates at 10,000 cells per well in growth media with 2 μM Luc705-SSO or 1 μM Luc705-SSO. The”
structure (smiles),measurement,setting,value
COc1nn(C2CCNCC2)cc1Nc1ncc(Cl)c(-n2ccc3c(C#N)cccc32)n1 [Compound 2],increase in SSO activity,"HeLa_Luc705 cells; 2 μM Luc 705 SSO, FIG. 26",induced an increase in SSO activity
same,relocalisation of Gal9 from cytosolic to punctate,"HeLa mCherry-Gal9 cells; 10-point dose titration, 2 hours, FIG. 3",dose-dependent manner
same,"endosomal rupture, decrease of 488-SSO puncta",HeLa mCherry-Gal9 cells; FIG. 16A,time and concentration-dependent manner
same,quantitation of GAL9 (mCherry-GAL9 puncta),HeLa mCherry-Gal9 cells; FIG. 17A,time and concentration-dependent responses
same,window in concentration between induction of endosomal rupture and cytotoxicity,"HeLa mCherry-Gal9 cells; HeLa, FIG. 5",narrow window
same,quantitation of Gal9 recruitment over time,"HeLa mCherry-Gal9 cells; HeLa, FIG. 8",time-dependent endosomal rupture
same,A488-positive structures (A488-SSO) after treatment,"HeLa mCherry-Gal9 cells; preloaded 1 μM A488-SSO, FIG. 15A",gradually disappeared over 2 hours
same,relocalisation of Gal9 from cytosolic to punctate,"Huh7 mCherry-Gal9 cells; 10-point dose titration, 2 hours, FIG. 4",dose-dependent manner
same,"Gal9 recruitment signal, puncta per relative nuclear signal","Huh7 mCherry-Gal9 cells; 60 min, Huh7",highest overall induced signal
same,"endosomal rupture, decrease of 488-SSO puncta",Huh7 mCherry-Gal9 cells; FIG. 16B,time and concentration-dependent manner
same,quantitation of GAL9 (mCherry-GAL9 puncta),Huh7 mCherry-Gal9 cells; FIG. 17B,time and concentration-dependent responses
same,window in concentration between induction of endosomal rupture and cytotoxicity,"Huh7 mCherry-Gal9 cells; Huh7, FIG. 5",narrow window
same,quantitation of Gal9 recruitment over time,"Huh7 mCherry-Gal9 cells; Huh7, FIG. 7",time-dependent endosomal rupture
same,A488-positive structures (A488-SSO) after treatment,"Huh7 mCherry-Gal9 cells; preloaded 1 μM A488-SSO, FIG. 15B",gradually disappeared over 2 hours
same,"GAL9 recruitment, reason for selection for further characterization",mCherry-GAL9 cells,efficacy at shorter-term timepoints
same,particle size profile of oligonucleotide in cell growth media,[1],No significant differences in particle size; also recorded: no significant changes in particle size profile
COc1nn(C2CCNCC2)cc1Nc1ncc(F)c(-n2ccc3c(C#N)cccc32)n1 [Compound 4],increase in SSO activity,"HeLa_Luc705 cells; 2 μM Luc 705 SSO, FIG. 24",increase in SSO activity
same,increase in SSO activity,"HeLa_Luc705 cells; 2 μM Luc 705 SSO, FIG. 26",induced an increase in SSO activity
same,increase in SSO activity,"HeLa_Luc705 cells; 2 μM SSO, FIG. 23A",increase in SSO activity
same,activity of the oligo as compared to oligo only,"HeLa_Luc705 cells; 2.5 μM compound, 1 μM SSO, FIG. 27",enhanced activity of the oligo as compared to oligo only
same,increase in SSO activity over 1 μM naked SSO,"HeLa_Luc705 cells; higher concentrations of AZ3327, FIG. 23B",increase in SSO activity
same,activity of the oligo as compared to oligo only,N2A_Luc705 cells,enhanced activity of the oligo as compared to oligo only
same,activity of the oligo as compared to oligo only,U2OS_Luc705 cells,enhanced activity of the oligo as compared to oligo only
same,"GAL9 response, rank among exemplified compounds","HeLa mCherry-Gal9 cells; doses 1.25-5 μM, 1, 2, 16 hours, FIG. 34",most potent response
same,"GAL9 response, rank","Huh7 mCherry-Gal9 cells; 0.25 to 4 hours, 0.31 to 10 μM, FIG. 40",most potent
same,dose from which GAL9+ responses are seen,"Huh7 mCherry-Gal9 cells; after 15 mins, FIG. 40",≥ 1.25 µM
same,"GAL9 response, rank among exemplified compounds","Huh7 mCherry-Gal9 cells; doses 1.25-5 μM, 1, 2, 16 hours, FIG. 33",most potent response
